From US7378415B2, “Benzoxazine and quinoxaline derivatives and uses thereof” (Roche Palo Alto LLC, priority 2004, dated 2008)
Structures can show the parent of a compound that is named as a salt.

tested on: not given; assay: not given; conditions: not given

| melting point | SMILES |
| --- | --- |
| 44 to 47 °C | O=C(CC1=NCCN1)N1CCOc2cc(S(=O)(=O)c3ccccc3)ccc21 |
| 232.9 to 235.3 °C | CN(C)CCN1C(=O)COc2cc(S(=O)(=O)c3ccccc3)ccc21 (as salt: HCl) |
| 114 to 116.1 °C | O=S(=O)(c1ccccc1)c1ccc2c(c1)N(CC1=NCCN1)CCO2 (as salt: HCl) |
| 194 to 196.4 °C | CN(C)CCCN1C(=O)COc2cc(S(=O)(=O)c3ccccc3)ccc21 (as salt: HCl) |
| 202.3 to 203.6 °C | O=C(CC1=NCCN1)N1CCOc2cc(S(=O)(=O)c3ccccc3)ccc21 (as salt: HCl) |
| 261 to 265.1 °C | NCCN1CCOc2cc(S(=O)(=O)c3ccccc3)ccc21 (as salt: HCl) |
| 113.7 to 116 °C | O=C1COc2cc(S(=O)(=O)c3ccccc3)ccc2N1CC1=NCCN1 (as salt: HCl) |
| 220.9 to 221.3 °C | NCCNC(=O)N1CCOc2cc(S(=O)(=O)c3ccccc3)ccc21 (as salt: hydrochloride) |
| 188.3 to 193.2 °C | CNCCCN1CCOc2cc(S(=O)(=O)c3ccccc3)ccc21 (as salt: hydrochloride) |
| 182 to 186.6 °C | O=C(C1CNC1)N1CCOc2cc(S(=O)(=O)c3ccccc3)ccc21 (as salt: hydrochloride) |
| 206.9 to 209.1 °C | NCCN1C(=O)COc2cc(S(=O)(=O)c3ccccc3)ccc21 (as salt: hydrochloride) |
| 109.2 to 110.5 °C | O=C(C1CCNC1)N1CCOc2cc(S(=O)(=O)c3ccccc3)ccc21 (centres unmarked) (as salt: hydrochloride) |
| 130.5 to 136.7 °C | O=C(C1CCCNC1)N1CCOc2cc(S(=O)(=O)c3ccccc3)ccc21 (centres unmarked) (as salt: hydrochloride) |
| 122.8 to 127.6 °C | O=S(=O)(c1ccccc1)c1ccc2c(c1)OCCN2C1CCNC1 (centres unmarked) (as salt: hydrochloride) |
| 112.7 to 120.4 °C | CC1(C)CN(c2ccncc2)c2ccc(S(=O)(=O)c3ccccc3)cc2O1 (as salt: hydrochloride) |
| 284.9 to 296.3 °C | CC1(C)CN(C2CCNCC2)c2ccc(S(=O)(=O)c3ccccc3)cc2O1 (as salt: hydrochloride) |

Continued, molecule first:

| SMILES | melting point |
| --- | --- |
| NCCNC(=O)N1CCOc2ccc(S(=O)(=O)c3ccccc3)cc21 | 172.4 to 181.3 °C |
| N=C(N)NC(=O)N1CCOc2cc(S(=O)(=O)c3ccccc3)ccc21 | 61.2 to 67.3 °C |
| O=S(=O)(c1ccccc1)c1ccc2c(c1)OCCN2CCn1ccnc1 | 61.5 to 64.4 °C |
| O=C(CC1=NCCN1)N1CCOc2ccc(S(=O)(=O)c3ccccc3)cc21 | 114 to 116.1 °C |
| CN(C)CCCCN1C(=O)COc2cc(S(=O)(=O)c3ccccc3)ccc21 (as salt: HCl) | 179 to 180 °C |
| O=C1COc2ccc(S(=O)(=O)c3ccccc3)cc2N1CC1=NCCN1 (as salt: HCl) | 250 to 252 °C |
| NCCN1CCOc2ccc(S(=O)(=O)c3ccccc3)cc21 (as salt: HCl) | 242.9 to 245.9 °C |
| CNCCC(=O)N1CCOc2ccc(S(=O)(=O)c3ccccc3)cc21 (as salt: hydrochloride) | 208.3 to 214.7 °C |
| CNCC(=O)N1CCOc2ccc(S(=O)(=O)c3ccccc3)cc21 (as salt: hydrochloride) | 233 to 235.5 °C |
| CN(C)CC(=O)N1CCOc2ccc(S(=O)(=O)c3ccccc3)cc21 (as salt: hydrochloride) | 199 to 203 °C |
| N=C(N)NC(=O)N1CCOc2cc(S(=O)(=O)c3ccccc3)ccc21 (as salt: hydrochloride) | 148.5 to 151.6 °C |

biological target: T1, recombinant human 5-HT6 receptor (Homo sapiens, UniProt P50406); assay: Radioligand binding, [3H]LSD competition in HEK293 cell membranes; conditions: [3H]LSD displacement, pH 7.4, 37° C., read-out: pKi for the 5-HT6 receptor (converted)
T1 construct: expressed in transfected cells
T1 sequence (P50406 whole entry): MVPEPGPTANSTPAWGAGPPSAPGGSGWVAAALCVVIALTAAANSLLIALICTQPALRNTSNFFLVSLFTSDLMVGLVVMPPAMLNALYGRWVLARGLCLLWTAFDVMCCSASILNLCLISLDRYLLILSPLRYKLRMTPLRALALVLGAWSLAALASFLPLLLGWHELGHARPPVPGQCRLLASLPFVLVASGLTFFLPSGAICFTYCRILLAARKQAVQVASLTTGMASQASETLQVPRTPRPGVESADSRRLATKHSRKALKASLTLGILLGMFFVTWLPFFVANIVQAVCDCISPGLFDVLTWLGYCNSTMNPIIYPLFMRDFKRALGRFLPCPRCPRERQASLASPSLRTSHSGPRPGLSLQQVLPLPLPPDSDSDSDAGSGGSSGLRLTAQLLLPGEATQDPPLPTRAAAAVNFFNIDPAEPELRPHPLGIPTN
Method: (§1) The binding activity of compounds of this invention in vitro was determined as follows. Duplicate determinations of 5-HT6 ligand affinity were made by competing for binding of [^3H]LSD in cell membranes derived from HEK293 cells stably expressing recombinant human 5-HT6 receptor. Duplicate determinations of 5-HT2A ligand affinity were made by competing for binding of [^3H]Ketanserin (3-(2-(4-(4-fluorobenzoyl)piperidinol)ethyl)-2,4(1H,3H)-quinazolinedione) in cell membranes derived from CHO-K1 cells stably expressing recombinant human 5-HT2A receptor.
(§2) Assay tubes containing [^3H] LSD or [^3H]Ketanserin (5 nM), competing ligand, and membrane were incubated in a shaking water bath for 75 min. at 37° C. (for 5-HT6) or 60 min. at 32° C. (for 5-HT2A), filtered onto Packard GF-B plates (pre-soaked with 0.3% PEI) using a Packard 96 well cell harvester and washed 3 times in ice cold 50 mM Tris-HCl. Bound [^3H] LSD or [^3H]Ketanserin were determined as radioactive counts per minute using Packard TopCount.
(§3) Displacement of [^3H]LSD or [^3H]Ketanserin from the binding sites was quantified by fitting concentration-binding data to a 4-parameter logistic equation:
(§4) [formula] where Hill is the Hill slope, [ligand] is the concentration of competing radioligand and IC50 is the concentration of radioligand producing half-maximal specific binding of radioligand. […]

| SMILES | Ki |
| --- | --- |
| O=S(=O)(c1ccccc1)c1ccc2c(c1)OCCN2C1CCNCC1 [Compound 22, 7-Benzenesulfonyl-4-piperidin-4-yl-3,4-dihydro-2H-benzo[1,4]oxazine] | ~0.105 nM |

biological target: T2, recombinant human 5-HT2A receptor (Homo sapiens, UniProt P28223); assay: Radioligand binding, [3H]Ketanserin competition in CHO-K1 cell membranes; conditions: [3H]Ketanserin displacement, pH 7.4, 32° C., read-out: pKi for the 5-HT2A receptor (converted)
T2 construct: expressed in transfected cells
T2 sequence (P28223 whole entry): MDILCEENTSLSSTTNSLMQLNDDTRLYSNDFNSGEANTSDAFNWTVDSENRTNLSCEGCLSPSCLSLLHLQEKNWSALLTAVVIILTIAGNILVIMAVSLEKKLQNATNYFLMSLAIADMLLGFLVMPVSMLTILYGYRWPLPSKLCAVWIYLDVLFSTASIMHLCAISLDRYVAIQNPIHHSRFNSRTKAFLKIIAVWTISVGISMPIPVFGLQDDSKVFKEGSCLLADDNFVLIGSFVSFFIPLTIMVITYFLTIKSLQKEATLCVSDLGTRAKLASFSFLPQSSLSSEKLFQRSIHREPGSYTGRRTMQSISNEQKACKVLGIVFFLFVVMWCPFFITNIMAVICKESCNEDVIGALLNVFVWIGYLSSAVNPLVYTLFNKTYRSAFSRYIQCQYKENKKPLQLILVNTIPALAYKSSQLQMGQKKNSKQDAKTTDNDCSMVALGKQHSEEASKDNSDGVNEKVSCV
Method: as §1, §2, §3, §4

| SMILES | Ki |
| --- | --- |
| O=S(=O)(c1ccccc1)c1ccc2c(c1)OCCN2C1CCNCC1 [Compound 22, 7-Benzenesulfonyl-4-piperidin-4-yl-3,4-dihydro-2H-benzo[1,4]oxazine] | ~8.13 nM |
